Patent publication US5591438A, “Natamycin recovery” (Bio-Technical Resources L.P., priority 1994, dated 1997)
≈ marks a conversion by molar mass, not a printed value.

Columns and labels:
Format in all cases: physicochemical
[1] = Natamycin methyl ester formation in methanol (stability of natamycin in acidified methanol)
Description: Formation of natamycin methyl ester, an undesired by-product, depends on the pH, the natamycin-methanol contact time, and the temperature (see Table 1). It is important that this step be carried out at a temperature of about 0°-25° C., since formation of natamycin methyl ester and other undesirable by-products is minimized. The higher the temperature or the longer the contact time, the greater the by-product production at a given pH. To avoid excessive natamycin methyl ester formation at 15°-25° C., short contact times, i.e., 0.5 hr or less, should be used. At about […], the extraction time should not exceed about 1.5 hr. An extraction temperature of about 0°-15° C. is preferred.
Natamycin Methyl Ester Formation in Methanol

physchem [2] = assay: physchem
From the text: Since water content of the extraction medium depends on the amount of water in the feed stream, it is desirable to remove as much water as possible from the feed stream before Step 1. If the feed stream contains about 70% by volume water, about three times as much methanol is required than when starting with a substantially dry feed stream. If the feed stream contains about 40% by volume water, about twice as much methanol is required.
The pH depends to some extent on the water content of the extraction medium and the yield desired. To obtain a precipitation yield of about 90% or more, the natamycin concentration in the extraction medium should be about 40 g/L. In the absence of water this requires a pH of about 4.5. At about 30% water/70% methanol (by volume) this requires a pH of about 2.5 (Table 2).
Solubility of Natamycin in Methanol and Methanol/Water

physchem [3] = settings: methanol/cacl2, organic solvent or mixture, Solubility of Natamycin in Methanol/CaCl2 Extractant
From the text: To precipitate a high percentage of the natamycin, the water content of the extraction liquor should be increased to at least 50% by volume. Table 3 indicates the solubility of natamycin in a methanol/water/calcium chloride solution as a function of water content.
Solubility of Natamycin in Methanol/CaCl2 *
Extractant at Various Water Concentrations

[4] = Ester formation in methanol with 40 g/L CaCl2 (stability of natamycin); settings: for Methyl Ester (% of product) / Natamycin (concentration in methanol with CaCl2): methanol with 40 g/L CaCl2
Description: This process can be run at pH 2-9, preferably at pH 6-8. If the pH is low, shorter extraction times should be used because acidic conditions promote natamycin methyl ester formation. (See Table 4) If the pH is above 6, ester formation is slower. Any reasonable temperature may be used (i.e. 20°-30° C.).
Ester Formation in Methanol with 40 g/L CaCl2

Methyl Ester (% by weight of product) ([1]; 4 °C, pH 2.4, 0 hr): 0.4 % by weight of product | Natamycin (concentration in methanol) ([1]; 4 °C, pH 2.4, 0 hr): 42 g/L | Methyl Ester (% by weight of product) ([1]; 4 °C, pH 2.4, 2 hr): 1.3 % by weight of product | Natamycin (concentration in methanol) ([1]; 4 °C, pH 2.4, 2 hr): 42 g/L | Methyl Ester (% by weight of product) ([1]; 4 °C, pH 2.4, 8.5 hr): 2.7 % by weight of product | Natamycin (concentration in methanol) ([1]; 4 °C, pH 2.4, 8.5 hr): 39 g/L | Methyl Ester (% by weight of product) ([1]; 4 °C, pH 2.4, 19 hr): 5.2 % by weight of product | Natamycin (concentration in methanol) ([1]; 4 °C, pH 2.4, 19 hr): 37 g/L | Methyl Ester (% by weight of product) ([1]; 23 °C, pH 2.4, 0 hr): 0 % by weight of product | Natamycin (concentration in methanol) ([1]; 23 °C, pH 2.4, 0 hr): 44 g/L | Methyl Ester (% by weight of product) ([1]; 23 °C, pH 2.4, 1 hr): 3.9 % by weight of product | Natamycin (concentration in methanol) ([1]; 23 °C, pH 2.4, 1 hr): 42 g/L | Methyl Ester (% by weight of product) ([1]; 23 °C, pH 2.4, 2 hr): 7.3 % by weight of product | Natamycin (concentration in methanol) ([1]; 23 °C, pH 2.4, 2 hr): 41 g/L | Methyl Ester (% by weight of product) ([1]; 23 °C, pH 2.4, 3 hr): 9.7 % by weight of product | Natamycin (concentration in methanol) ([1]; 23 °C, pH 2.4, 3 hr): 38 g/L | Methyl Ester (% by weight of product) ([1]; 23 °C, pH 3.2, 0 hr): 0 % by weight of product | Natamycin (concentration in methanol) ([1]; 23 °C, pH 3.2, 0 hr): 38 g/L | Methyl Ester (% by weight of product) ([1]; 23 °C, pH 3.2, 1 hr): 2.3 % by weight of product | Natamycin (concentration in methanol) ([1]; 23 °C, pH 3.2, 1 hr): 38 g/L | Methyl Ester (% by weight of product) ([1]; 23 °C, pH 3.2, 2 hr): 3.9 % by weight of product | Natamycin (concentration in methanol) ([1]; 23 °C, pH 3.2, 2 hr): 37 g/L | Methyl Ester (% by weight of product) ([1]; 23 °C, pH 3.2, 4 hr): 7.4 % by weight of product | Natamycin (concentration in methanol) ([1]; 23 °C, pH 3.2, 4 hr): 34 g/L | Methyl Ester (% by weight of product) ([1]; 23 °C, pH 3.2, 6 hr): 9.2 % by weight of product | Natamycin (concentration in methanol) ([1]; 23 °C, pH 3.2, 6 hr): 32 g/L | Methyl Ester (% by weight of product) ([1]; 23 °C, pH 3.2, 16 hr): 14 % by weight of product | Natamycin (concentration in methanol) ([1]; 23 °C, pH 3.2, 16 hr): 23 g/L | Methyl Ester (% by weight of product) ([1]; 23 °C, pH 4.0, 0 hr): 0 % by weight of product | Natamycin (concentration in methanol) ([1]; 23 °C, pH 4.0, 0 hr): 41 g/L | Methyl Ester (% by weight of product) ([1]; 23 °C, pH 4.0, 2 hr): 2.3 % by weight of product | Natamycin (concentration in methanol) ([1]; 23 °C, pH 4.0, 2 hr): 40 g/L | Methyl Ester (% by weight of product) ([1]; 23 °C, pH 4.0, 4 hr): 3.7 % by weight of product | Natamycin (concentration in methanol) ([1]; 23 °C, pH 4.0, 4 hr): 39 g/L | solubility in methanol (physchem [2]): excellent solubility | solubility in the extraction medium after acid addition (physchem [2]): highly soluble | solubility of natamycin in the extraction medium (physchem [2]): decreases as the water increases | solubility (physchem [2]; methanol, pH 2, organic solvent or mixture): 94 mg/mL (≈ 141 mM) | solubility (physchem [2]; methanol, pH 3.8, organic solvent or mixture): 78 mg/mL (≈ 117 mM) | solubility (physchem [2]; methanol, pH 4.5, organic solvent or mixture): 50 mg/mL (≈ 75.1 mM) | solubility (physchem [2]; methanol, pH 7, organic solvent or mixture): 6 mg/mL (≈ 9.01 mM) | solubility (physchem [2]; methanol/water, pH 2.4, organic solvent or mixture): 55 mg/mL (≈ 82.6 mM) | solubility (physchem [2]; methanol/water, pH 3.3, organic solvent or mixture): 18 mg/mL (≈ 27 mM) | solubility (physchem [2]; methanol/water, pH 7, organic solvent or mixture): 4 mg/mL (≈ 6.01 mM) | solubility (physchem [3]): 91 mg/mL (≈ 137 mM) | Methyl Ester (% of product) ([4]; 5 °C, pH 4.4, 0 hr): 0 % of product | Natamycin (concentration in methanol with CaCl2) ([4]; 5 °C, pH 4.4, 0 hr): 60 g/L | Methyl Ester (% of product) ([4]; 5 °C, pH 4.4, 8 hr): 0.5 % of product | Natamycin (concentration in methanol with CaCl2) ([4]; 5 °C, pH 4.4, 8 hr): 60 g/L | Methyl Ester (% of product) ([4]; 23 °C, pH 4.4, 0 hr): 0 % of product | Natamycin (concentration in methanol with CaCl2) ([4]; 23 °C, pH 4.4, 0 hr): 72 g/L | Methyl Ester (% of product) ([4]; 23 °C, pH 4.4, 6 hr): 5.0 % of product | Natamycin (concentration in methanol with CaCl2) ([4]; 23 °C, pH 4.4, 6 hr): 67 g/L | Methyl Ester (% of product) ([4]; 23 °C, pH 5.3, 0 hr): 0 % of product | Natamycin (concentration in methanol with CaCl2) ([4]; 23 °C, pH 5.3, 0 hr): 51 g/L | Methyl Ester (% of product) ([4]; 23 °C, pH 5.3, 20 hr): 2.4 % of product | Natamycin (concentration in methanol with CaCl2) ([4]; 23 °C, pH 5.3, 20 hr): 48 g/L | Methyl Ester (% of product) ([4]; 23 °C, pH 6.1, 0 hr): 0 % of product | Natamycin (concentration in methanol with CaCl2) ([4]; 23 °C, pH 6.1, 0 hr): 51 g/L | Methyl Ester (% of product) ([4]; 23 °C, pH 6.1, 20 hr): 1.1 % of product | Natamycin (concentration in methanol with CaCl2) ([4]; 23 °C, pH 6.1, 20 hr): 49 g/L | natamycin methyl ester formation ([4]; methanol/CaCl2, pH above 6): slower
SMILES: C[C@@H]1C/C=C/C=C/C=C/C=C/[C@H](O[C@@H]2O[C@H](C)[C@@H](O)[C@H](N)[C@@H]2O)C[C@@H]2O[C@](O)(C[C@@H](O)C[C@H]3O[C@@H]3/C=C/C(=O)O1)C[C@H](O)[C@H]2C(=O)O [Natamycin, natamycin]
